Results published in patent US12472230B2, “Peptides and methods of use thereof in treating uveitis” (Park Strategic Ventures LLC, priority 2019, dated 2025).
≈ marks a conversion by molar mass, not a printed value. Residues, ends and D or L forms follow the SMILES beside them. No end group written: not given here. *: point of attachment. Myristoyl = CCCCCCCCCCCCCC(=O)*

Columns and labels:
T/2 in human plasma = type: in vitro ADME
Solubility in HNS = type: physicochemical
[1] = tested on: release of inflammatory mediators from leukocyte cell types; assay: Release of inflammatory mediators from leukocyte cell types, MANS versus RNS; type: cell-based, human; conditions: each of the cell types examined; time course of 0.5-3.0 hrs
Method: In an in vitro method to inhibit or attenuate the release of a mediator of inflammation such as those described herein, each of the cell types is preincubated with a peptide compound or peptide composition of this disclosure over a range of concentrations followed by incubation of these cells by a stimulator of release of inflammatory mediators, such as phorbol ester. The percent of inhibition of release of a mediator of inflammation is determined as compared to the release of the mediator in the absence of the peptide compound or peptide composition, such as in a specrophotometric readout of a concentration of the mediator released.

solubility (Solubility in HNS) [mg/mL] | Molecule | half-life (T/2 in human plasma) [min] | also measured
15 (≈ 12.3 mM) | CCCCCCCCCCCCCC(=O)NCC(=O)N[C@@H](C)C(=O)N[C@@H](CCC(N)=O)C(=O)N[C@@H](Cc1ccccc1)C(=O)N[C@@H](CO)C(=O)N[C@@H](CCCCN)C(=O)N[C@H](C(=O)N[C@@H](C)C(=O)N[C@@H](C)C(=O)N[C@@H](CCCCN)C(=O)O)[C@@H](C)O [BIO-11000] (Myristoyl-GAQFSKTAAK-OH) | 72 | –
~1 (≈ 1.63 mM) | CCCCCCCCCCCCCC(=O)N[C@@H](C)C(=O)N[C@@H](CCCCN)C(=O)NCC(=O)N[C@@H](CCC(=O)O)C(=O)O [BIO-91200, Ma-AKGE-OH] (Myristoyl-AKGE-OH) | – | –
200 (≈ 449 mM) | CC(=O)N[C@@H](C)C(=O)N[C@@H](CCCCN)C(=O)NCC(=O)N[C@@H](CCC(=O)O)C(=O)O [BIO-91201, Ac-AKGE-OH] (Ac-AKGE-OH) | – | –
200 (≈ 450 mM) | CC(=O)N[C@@H](C)C(=O)N[C@@H](CCCCN)C(=O)NCC(=O)N[C@@H](CCC(=O)O)C(N)=O [BIO-91202, Ac-AKGE-NH2] (Ac-AKGE-NH2) | – | –
200 | Ac-GAQFSKTA-OH [BIO-10803] | – | –
> 60 | Ac-GAQFSKTAA-OH [BIO-10901] | 5 | –
125 | Ac-GAQFSKTAAKGEAAAERPGEAAVA-OH [Ac-MANS] | – | –
– | BIO-11018: SEQ ID NO 106 pegylated (GAQFSKTAAK; also: PEGylated, site not given here) | – | Solubility in HNS (Solubility in HNS): >100 mg/mL
– | GTAPAAEGAGAEVKRASAEAKQAF [RNS] | – | release of inflammatory mediators [1]: not

Molecule | solubility (Solubility in HNS) [mg/mL] | half-life (T/2 in human plasma) [min] | also measured
CCCCCCCCCCCCCC(=O)NCC(=O)N[C@@H](C)C(=O)N[C@@H](CCC(N)=O)C(=O)N[C@@H](Cc1ccccc1)C(=O)N[C@@H](CO)C(=O)N[C@@H](CCCCN)C(=O)N[C@H](C(=O)N[C@@H](C)C(=O)N[C@@H](C)C(=O)N[C@@H](CCCCN)C(N)=O)[C@@H](C)O [BIO-11002] (Myristoyl-GAQFSKTAAK-NH2) | < 10 | – | T/2 (human plasma), in words (T/2 in human plasma): stable
C[C@@H]1NC(=O)CNC(=O)[C@H](CCCCN)NC(=O)[C@H](C)NC(=O)[C@H](C)NC(=O)[C@H]([C@@H](C)O)NC(=O)[C@H](CCCCN)NC(=O)[C@H](CO)NC(=O)[C@H](Cc2ccccc2)NC(=O)[C@H](CCC(N)=O)NC1=O [BIO-11007] (cyclo(GAQFSKTAAK); ring closure inferred) | 150 (≈ 151 mM) | – | –
CCCCCCCCCCCCCC(=O)NCC(=O)N[C@@H](C)C(=O)N[C@@H](CCC(N)=O)C(=O)N[C@@H](Cc1ccccc1)C(=O)N[C@@H](CO)C(=O)N[C@@H](CCCCN)C(=O)N[C@H](C(=O)N[C@@H](C)C(=O)N[C@@H](C)C(=O)N[C@@H](CCCCN)C(=O)NCC(=O)N[C@@H](CCC(=O)O)C(=O)N[C@@H](C)C(=O)N[C@@H](C)C(=O)N[C@@H](C)C(=O)N[C@@H](CCC(=O)O)C(=O)N[C@@H](CCCNC(=N)N)C(=O)N1CCC[C@H]1C(=O)NCC(=O)N[C@@H](CCC(=O)O)C(=O)N[C@@H](C)C(=O)N[C@@H](C)C(=O)N[C@H](C(=O)N[C@@H](C)C(=O)O)C(C)C)[C@@H](C)O [MANS] (Myristoyl-GAQFSKTAAKGEAAAERPGEAAVA-OH; C-terminus assumed) | < 5 | 12 | –
Ac-GAQFSKTAAKGE-NH2 [BIO-11211] | 60 | > 156 | –
H-GAQFSKTAAK-NH2 [BIO-11005] | 100 | 20 | –
